The values that follow come from US20260226064A1, “POLYCYCLIC COMPOUND FOR TREATING NEUROLOGICAL DISEASES AND TUMORS” (Shanghai Institute of Organic Chemistry, Chinese Academy of …, priority 2023, published 2026).

Data set [1] concerns acetylated microtubule in HEK293T cells. The experiment in a line: Microtubule-Stabilizing Activity Assay (acetylated microtubule immunoblot, HEK293T, colchicine challenge). It counts as cell-based. The conditions noted are these: 1 h pre-incubation, then colchicine 1 μM 3 h, relative to CNDR-51657 at 500 nM = 1.00; for Microtubule-Stabilizing Activity 50 nM: compound 50 nM; for Microtubule-Stabilizing Activity 500 nM: compound 500 nM. Put shortly:
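HEK293T cells pretreated with compound or DMSO 1 h at 37 °C, then challenged with 1 μM colchicine for 3 h. Lysates (RIPA plus 1 μM trichostatin A) immunoblotted for acetylated and α-tubulin, quantified by densitometry. Activity expressed relative to CNDR-51657 at 500 nM set as 1.00.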

The nature of data set [2]: Mouse Oral Pharmacokinetic Study. It counts as in vivo. The conditions noted are these: male CD1 mice, oral gavage 10 mg/kg; for Kp at 4 h: brain/plasma, read-out: Cbrain/Cplasma; for AUC(0-t): read-out: AUC0-4h. As to the method:
Healthy male CD1 mice were used as experimental animals. The drug was administered by oral gavage at a dose of 10 mg/kg with a dosing volume of 10 mL/kg. Drug preparation: 10 mg of the compound was placed in 10 mL of 50% PEG400 or 20% HPb-cyclodextrin, ground and shaken to ensure uniform distribution of the compound in small particle size, followed by oral administration. Blood samples were collected at 30 min, 1 h, 2 h, and 4 h post-dose, and brain tissues were sampled at 4 h. EDTA dipotassium salt was added to the blood samples, and plasma was obtained after centrifugation. The supernatant was analyzed after dilution with 5 volumes of acetonitrile and centrifugation. The brain tissue homogenate was diluted with 3.5 volumes of acetonitrile, centrifuged, and the supernatant was collected for analysis. The samples were then analyzed by liquid chromatography-tandem mass spectrometry (LC-MS/MS): the instrument was AB Sciex 3500; the mobile phase consisted of 0.1% formic acid in water (A)/0.1% formic acid in acetonitrile (B), with gradient elution.

Setting [3] is: mouse, brain tissue at 4 h, read-out: Cbrain@4h.
Where [4] appears, read: mouse, plasma at 4 h, read-out: Cpasma@4h.

Like-named read-outs stand apart in the source and are kept apart here.

On to `CNCCCOc1cc(F)c(-c2c(Cl)nc3ncnn3c2N[C@@H](C)C(F)(F)F)c(F)c1` [Cevipubulin, reference compound], for which, in data set [1], the “Microtubule-Stabilizing Activity 50 nM” value is 1.65 and the “Microtubule-Stabilizing Activity 500 nM” value is 1.68. Besides, the Cbrain/Cplasma in data set [2] (4 h) was determined as 0.10. For the same molecule, the “Cbrain@4h” value in data set [2] (brain tissue at 4 h) is listed as 38 ng/mL. Also, in data set [2] (plasma), the Cmax is 660 ng/mL and the Tmax turned out to be 54 min. Also, the “Cpasma@4h” value in data set [2] (plasma at 4 h) came out at 376 ng/mL. Moreover, in data set [2] (plasma, 0-4 h), the AUC0-4h stood at 1826 ng·h/mL.

As for `CNC1CC2(C1)CC(Oc1cc(F)c(-c3c(Cl)nc4ncnn4c3N[C@@H](C)C(F)(F)F)c(F)c1)C2` (stereo partly drawn) [Example 11, (S)-5-Chloro-6-(2,6-difluoro-4-((6-(methylamino)spiro[3.3]heptan-2-yl)oxy)phenyl)-N-(1,1,1-trifluoropropan-2-yl)-[1,2,4]triazolo[1,5-a]pyrimidin-7-amine], in data set [1], the “Microtubule-Stabilizing Activity 50 nM” value was 0.60 and the “Microtubule-Stabilizing Activity 500 nM” value came out at 1.45. In addition, the Kp at 4 h in data set [2] (mouse, 4 h) came to 0.11. The concentration at 4 h in data set [2] (setting [3]) turned out to be 252 ng/mL. Also, the concentration at 4 h in data set [2] (setting [4]) was found to be 2200 ng/mL. In addition, the AUC(0-t) in data set [2] (mouse, plasma, 0-4 h) was found to be 11200 ng·h/mL. Besides, in data set [2] (mouse, plasma, read-out: Cmax), the Cmax was found to be 4140 ng/mL. The Tmax in data set [2] (mouse, plasma, read-out: Tmax) stood at 45 min.

For the molecule `C[C@H](Nc1c(-c2c(F)cc(OCC3[C@H]4CNC[C@@H]34)cc2F)c(Cl)nc2ncnn12)C(F)(F)F` (stereo partly drawn) [Example 24, 6-(4-(((1R,5S,6r)-3-Azabicyclo[3.1.0]hex-6-yl)methoxy)-2,6-difluorophenyl)-5-chloro-N—((S)-1,1,1-trifluoropropan-2-yl)-[1,2,4]triazolo[1,5-a]pyrimidin-7-amine], in data set [1], the “Microtubule-Stabilizing Activity 50 nM” value was found to be 0.86 and the “Microtubule-Stabilizing Activity 500 nM” value worked out at 1.63. Moreover, the Kp at 4 h in data set [2] (mouse, 4 h) turned out to be 0.17. Moreover, the concentration at 4 h in data set [2] (setting [3]) stood at 147 ng/mL. Also, in data set [2] (setting [4]), the concentration at 4 h was 874 ng/mL. Moreover, the AUC(0-t) in data set [2] (mouse, plasma, 0-4 h) was 5960 ng·h/mL. Further, the maximum concentration (Cmax) in data set [2] (mouse, plasma, read-out: Cmax) was 2640 ng/mL. Further, the Tmax in data set [2] (mouse, plasma, read-out: Tmax) was found to be 45 min.

Take `C[C@H](Nc1c(-c2c(F)cc(OCC3[C@H]4CN(C)C[C@@H]34)cc2F)c(Cl)nc2ncnn12)C(F)(F)F` (stereo partly drawn) [Example 25, 5-Chloro-6-(2,6-difluoro-4-(((1R,5S,6r)-3-methyl-3-azabicyclo[3.1.0]hexan-6-yl)methoxy)phenyl)-N—((S)-1,1,1-trifluoropropan-2-yl)-[1,2,4]triazolo[1,5-a]pyrimidin-7-amine]: in data set [1], the “Microtubule-Stabilizing Activity 50 nM” value came to 0.96 and the “Microtubule-Stabilizing Activity 500 nM” value is given as 1.31. Besides, in data set [2] (mouse, 4 h), the Kp at 4 h is 1.45. Moreover, the concentration at 4 h in data set [2] (setting [3]) stood at 198 ng/mL. Moreover, in data set [2] (setting [4]), the concentration at 4 h stood at 137 ng/mL. Further, in data set [2] (mouse, plasma, 0-4 h), the AUC(0-t) came out at 939 ng·h/mL. In addition, in data set [2] (mouse, plasma, read-out: Cmax), the Cmax came out at 399 ng/mL. In data set [2] (mouse, plasma, read-out: Tmax), the Tmax stood at 45 min.

Regarding `C[C@@H](Nc1c(-c2c(F)cc(C#C[C@@H]3[C@H]4CN(C)C[C@@H]34)cc2F)c(Cl)nc2ncnn12)C1CCC1` [Example 46, 5-Chloro-N—((R)-1-cyclobutylethyl)-6-(2,6-difluoro-4-(((1R,5S,6s)-3-methyl-3-azabicyclo[3.1.0]hexan-6-yl)ethynyl)phenyl)-[1,2,4]triazolo[1,5-a]pyrimidin-7-amine], the “Microtubule-Stabilizing Activity 50 nM” value in data set [1] came out at 1.76. Further, in data set [1], the “Microtubule-Stabilizing Activity 500 nM” value stood at 1.44. Further, the Kp at 4 h in data set [2] (mouse, 4 h) is 1.09. For the same molecule, the concentration at 4 h came to 356 ng/mL in data set [2] (setting [3]) and 325 ng/mL in data set [2] (setting [4]). Also, the AUC(0-t) in data set [2] (mouse, plasma, 0-4 h) amounted to 1600 ng·h/mL. Moreover, in data set [2] (mouse, plasma, read-out: Cmax), the Cmax worked out at 572 ng/mL. The Tmax in data set [2] (mouse, plasma, read-out: Tmax) came to 30 min.

For the molecule `C[C@H](Nc1c(-c2c(F)cc(C#CC3[C@H]4CN(C)C[C@@H]34)cc2F)c(Cl)nc2ncnn12)C(F)(F)F` (stereo partly drawn) [Example 48, 5-Chloro-6-(2,6-difluoro-4-(((1R,5S,6s)-3-methyl-3-azabicyclo[3.1.0]hexan-6-yl)ethynyl)phenyl)-N—((S)-1,1,1-trifluoropropan-2-yl)-[1,2,4]triazolo[1,5-a]pyrimidin-7-amine], in data set [1], the “Microtubule-Stabilizing Activity 50 nM” value was determined as 1.42 and the “Microtubule-Stabilizing Activity 500 nM” value worked out at 1.66. Also, in data set [2] (mouse, 4 h), the Kp at 4 h came out at 2.83. For the same molecule, the concentration at 4 h in data set [2] (setting [3]) came out at 1020 ng/mL. For the same molecule, in data set [2] (setting [4]), the concentration at 4 h came out at 359 ng/mL. Further, the AUC(0-t) in data set [2] (mouse, plasma, 0-4 h) came to 1810 ng·h/mL. In addition, in data set [2] (mouse, plasma, read-out: Cmax), the Cmax is 591 ng/mL. In addition, the Tmax in data set [2] (mouse, plasma, read-out: Tmax) was found to be 45 min.

In the case of `CC(C)[C@@H](C)Nc1c(-c2c(F)cc(C#C[C@@H]3[C@H]4CN(C)C[C@@H]34)cc2F)c(Cl)nc2ncnn12` [Example 55, 5-Chloro-6-(2,6-difluoro-4-(((1R,5S,6s)-3-methyl-3-azabicyclo[3.1.0]hexan-6-yl)ethynyl)phenyl)-N—((R)-3-methylbutan-2-yl)-[1,2,4]triazolo[1,5-a]pyrimidin-7-amine], in data set [1], the “Microtubule-Stabilizing Activity 50 nM” value amounted to 1.8 and the “Microtubule-Stabilizing Activity 500 nM” value is 1.62. In addition, in data set [2] (mouse, 4 h), the Kp at 4 h worked out at 1.22. The concentration at 4 h in data set [2] (setting [3]) stood at 375 ng/mL. Besides, the concentration at 4 h in data set [2] (setting [4]) is 306 ng/mL. Further, the AUC(0-t) in data set [2] (mouse, plasma, 0-4 h) stood at 1450 ng·h/mL. Also, in data set [2] (mouse, plasma, read-out: Cmax), the Cmax came to 496 ng/mL. Besides, the Tmax in data set [2] (mouse, plasma, read-out: Tmax) amounted to 30 min.

Consider `Cc1nc2ncnn2c(N[C@H](C)C(C)C)c1-c1c(F)cc(OCC2[C@H]3CN(C)C[C@@H]23)cc1F` (stereo partly drawn) [Example 57, 6-(2,6-Difluoro-4-(((1R,5S,6r)-3-methyl-3-azabicyclo[3.1.0]hexan-6-yl)methoxy)phenyl)-5-methyl-N—((R)-3-methylbutan-2-yl)-[1,2,4]triazolo[1,5-a]pyrimidin-7-amine], for which the “Microtubule-Stabilizing Activity 500 nM” value in data set [1] is on record as 1.90. The Kp at 4 h in data set [2] (mouse, 4 h) turned out to be 0.96. In addition, the concentration at 4 h in data set [2] (setting [3]) amounted to 102 ng/mL; in data set [2] (setting [4]), 106 ng/mL. Besides, in data set [2] (mouse, plasma, 0-4 h), the AUC(0-t) is 525 ng·h/mL. In addition, in data set [2] (mouse, plasma, read-out: Cmax), the Cmax was determined as 161 ng/mL. Further, the Tmax in data set [2] (mouse, plasma, read-out: Tmax) was 30 min.

For the molecule `CN1C[C@@H]2[C@@H](/C=C/c3cc(F)c(-c4c(Cl)nc5ncnn5c4NCC(F)(F)F)c(F)c3)[C@@H]2C1` [Example 58], the “Microtubule-Stabilizing Activity 50 nM” value in data set [1] worked out at 1.09. In data set [1], the “Microtubule-Stabilizing Activity 500 nM” value is 1.63. Further, in data set [2] (mouse, 4 h), the Kp at 4 h was determined as 3.58. The results for the concentration at 4 h in data set [2] (setting [3]) and in data set [2] (setting [4]) were 222 ng/mL and 62 ng/mL, respectively. Also, the AUC(0-t) in data set [2] (mouse, plasma, 0-4 h) is 368 ng·h/mL. Also, in data set [2] (mouse, plasma, read-out: Cmax), the Cmax was found to be 115 ng/mL. The Tmax in data set [2] (mouse, plasma, read-out: Tmax) stood at 60 min.

In the case of `Cc1nc2ncnn2c(NCC(F)(F)F)c1-c1c(F)cc(OC[C@@H]2[C@H]3CN(C)C[C@@H]23)cc1F` [Example 60], in data set [1], the “Microtubule-Stabilizing Activity 50 nM” value is recorded as 0.95 and the “Microtubule-Stabilizing Activity 500 nM” value is 1.24. For the same molecule, the Kp at 4 h in data set [2] (mouse, 4 h) amounted to 1.32. In addition, the concentration at 4 h in data set [2] (setting [3]) was found to be 62 ng/mL. Also, the concentration at 4 h in data set [2] (setting [4]) was determined as 47 ng/mL. Further, in data set [2] (mouse, plasma, 0-4 h), the AUC(0-t) worked out at 696 ng·h/mL. The Cmax in data set [2] (mouse, plasma, read-out: Cmax) stood at 379 ng/mL. For the same molecule, in data set [2] (mouse, plasma, read-out: Tmax), the time to peak (Tmax) came to 30 min.

For `CC(C)[C@@H](C)Nc1c(-c2c(F)cc(F)cc2F)c(Cl)nc2ncnn12` [Intermediate 4, (R)-5-Chloro-N-(3-methylbutan-2-yl)-6-(2,4,6-trifluorophenyl)-[1,2,4]triazolo[1,5-a]pyrimidin-7-amine, reference compound], in data set [1], the “Microtubule-Stabilizing Activity 50 nM” value is reported as 0.2-0.3 and the “Microtubule-Stabilizing Activity 500 nM” value is 1.00. The Kp at 4 h in data set [2] (mouse, 4 h) turned out to be 0. In addition, the concentration at 4 h in data set [2] (setting [3]) worked out at 0 ng/mL. Further, the concentration at 4 h in data set [2] (setting [4]) is 3 ng/mL. The AUC(0-t) in data set [2] (mouse, plasma, 0-4 h) stood at 57 ng·h/mL. For the same molecule, the Cmax in data set [2] (mouse, plasma, read-out: Cmax) was determined as 49 ng/mL. For the same molecule, in data set [2] (mouse, plasma, read-out: Tmax), the Tmax was determined as 30 min.
